Experimental data from US7511123B2, “Immuno-interactive fragments of the alpha-C subunit of inhibin” (Prince Henry's Institute of Medical Research, priority 1999, dated 2009).

Legend:
R1 = assay: RIA of Set 2 peptides with R1; assay type: binding, mouse; design: key: +++; ΦΦΦ strong effect; +, Φ weak effect; settings: Set 2 biotinylated peptides 0.8 and 0.08 micromoles/L
Description: (§1) The binding of the 41 biotinylated peptides as set forth in Table 7 (peptide set 2) to the mouse monoclonal antibodies (PO# series) was assessed as follows: b) Assay 2 (radioimrnunoassay, RIA) using iodinated human inhibin A as tracer. Mabs (at an appropriate dilution, see above) were incubated with iodinated human recombinant inhibin in the presence of biotinylated peptides (0.8 and 0.08 micromoles/L final concentration) overnight at room temperature.

As #128 [1] = assay: Competitive 2-site assay (Assay 3), approach (a); assay type: binding, sheep; design: key: +++++ major contribution; + minor contribution; settings: relative contribution
Text: This assay was developed to establish the relative importance of the individual peptides and peptide pools (identified as epitopes in Assays 1 and 2) in the sandwich antibody format used in the IFMA with As #128 as capture antibody and As #41 as detection antibody. Two approaches (a and b) were considered, Approach (a) explores the cross-reaction of peptides with inhibin for the immobilized As #128 while Approach (b) assesses their cross-reaction with inhibin for As #41.
Approach (a). The biotinylated peptide pools and/or individual peptides at various concentrations, in combination with a fixed concentration of hr-inhibin, were incubated for 2 hours with As #128-coated plates. The plates were then washed to remove any unbound material. Iodinated As #41 was then added to bind to the bound hr-inhibin, the plates washed and the bound radioactivity was measured in a gamma counter. The counts measured were proportional to the amount of hr-inhibin bound to both antisera. The possibility that a peptide contained two epitopes capable of linking As #128 and #41 was assessed in the absence of added hr-inhibin.

As #128 [2] = assay: RIA (Assay 2): competition with iodinated inhibin for As #128; assay type: binding, sheep; settings: biotinylated peptides; 50% fall in binding of iodinated inhibin
Text: (§2) This assay was used to determine which peptides compete with iodinated 30 kDa inhibin for As #41, #128 and #1989 (used in the original inhibin RIA, Lapphorn et al., 1989, supra) in a RIA format. This assay identifies those peptides that bind to inhibin-binding antibodies in the antiserum and provides a stricter affinity and specificity assessment in identifying the appropriate epitopes than that found with Assay 1. The competition between peptide and hr-inhibin (used as the standard) was assessed from their ED50 values. The RIA consisted of the competition of iodinated inhibin and either hr-inhibin reference preparation, individual peptides or pools from the 4 peptide regions, with As #41, #128 and in some instances, As #1989. The peptides/inhibin/iodinated inhibin and antisera (at a prescribed dilution) were incubated overnight at 4° C. using standard methodologies. The antibody-bound iodinated inhibin was immunoprecipitated with the addition of an anti-sheep IgG serum raised in goats and the radioactivity was measured in a gamma counter. The concentration of peptide that gives a 50% fall in binding of iodinated inhibin (ED50) was determined and this value was used to give a measure of the affinity of the peptide for the antiserum. This methodology consisted of determining the ED50 of the peptide in the RIA using iodinated human recombinant inhibin as tracer with either As #41, As #128 or As #1989 and graded doses of either hr-inhibin or peptide as described in Example 2.

As #128 [3] = assay: Solid phase assay (Assay 1): biotinylated peptides binding to As #128; design: species or system sheep; key: +++++ major contribution; + minor contribution; settings: relative contribution
Description: This assay is a broad screen of the binding of the 31 biotinylated peptides to As #41 and #128 as recommended by Chiron Mimotopes.
The biotinylated peptides were initially bound to streptavidin-coated 96-well plates (2 hours at room temperature), antiserum #41 or #128 was then added (2 hours room temperature) to bind to the peptides. Detection of antiserum binding was assessed by a further incubation with an anti-ovine IgG serum labeled with the enzyme, horseradish peroxidase. The enzyme activity was assessed by conversion of a colorless substrate to a colored product that is detected in a spectrophotometer. The enzyme activity measured was proportional to the extent of the binding of the peptides.

As #41 = assay: RIA (Assay 2): competition with iodinated inhibin for As #41; assay type: binding, sheep; settings: biotinylated peptides; 50% fall in binding of iodinated inhibin
Text: as §2

As #1989 = assay: RIA (Assay 2): competition with iodinated inhibin for As #1989; assay type: binding, rabbit; settings: biotinylated peptides; 50% fall in binding of iodinated inhibin
Text: as §2

PO-14 [4] = assay: Solid phase binding of Set 2 peptides to PO-14; design: species or system mouse; key: +++; ΦΦΦ strong effect; +, Φ weak effect; settings: Set 2 biotinylated peptides 24 micromoles/L
Description: (§3) The binding of the 41 biotinylated peptides as set forth in Table 7 (peptide set 2) to the mouse monoclonal antibodies (PO# series) was assessed as follows:
(§4) a) Assay 1 (solid phase assay). The assay was undertaken as outlined in assay 1 of Example 2. Biotinylated peptides (24 micromoles/L) were initially bound to streptavidin-coated plates. Mab (at an appropriate dilution to give a detectable response, 1:1000, 1:10000 dilution of the culture medium) was then added and incubated for 1.5 hr. The amount of bound Mab was determined using horseradish peroxidase-bound anti-mouse IgG serum and enzyme activity detected at 450-630 nm using an ELISA plate reader.

PO-12 [5] = assay: RIA of Set 2 peptides with PO-12; assay type: binding, mouse; design: key: +++; ΦΦΦ strong effect; +, Φ weak effect; settings: Set 2 biotinylated peptides 0.8 and 0.08 micromoles/L
Description: as §1

PO-14 [6] = assay: RIA of Set 2 peptides with PO-14; assay type: binding, mouse; settings: Set 2 biotinylated peptides 0.8 and 0.08 micromoles/L
Description: as §1

PO-14 [7] = assay: RIA of Set 2 peptides with PO-14; assay type: binding, mouse; design: key: +++; ΦΦΦ strong effect; +, Φ weak effect; settings: Set 2 biotinylated peptides 0.8 and 0.08 micromoles/L
Description: as §1

PO-12 [8] = assay: Solid phase binding of Set 2 peptides to PO-12; design: species or system mouse; key: +++; ΦΦΦ strong effect; +, Φ weak effect; settings: Set 2 biotinylated peptides 24 micromoles/L
Description: as §3, §4

## SGSG ALRLLQRPPEEPAA [Peptide 6]
R1
  R1 RIA: Φ
As #128 [1]
  #128 2-site competitive assay Assay 3: +
As #128 [2]
  As#128 ED50: 1.8 µM
As #128 [3]
  #128 Antibody screen Assay 1: +
As #41
  As#41 ED50: 0.026 µM
As #1989
  As#1989 ED50: >2.5 µM

## SGSG AALPGTMRPLHVRT [Peptide 27]
As #128 [2]
  As#128 ED50: 2 µM
PO-14 [4]
  PO-14 SPB: +++
As #41
  As#41 ED50: 5 µM
PO-12 [5]
  PO-12 RIA: Φ
As #1989
  As#1989 ED50: >2.5 µM
PO-14 [6]
  PO-14 RIA: ΦΦ

## SGSG GAPPTPAQPYSLLP [Peptide 22]
PO-14 [7]
  PO-14 RIA: Φ
As #128 [2]
  As#128 ED50: 0.156 µM
PO-14 [4]
  PO-14 SPB: +++
As #41
  As#41 ED50: 5 µM
PO-12 [5]
  PO-12 RIA: Φ
As #1989
  As#1989 ED50: >2.5 µM
PO-12 [8]
  PO-12 SPB: +++
